Reference: PubChem BioAssay AID192 (DTP/NCI, 2004)
Several values for one entry are separate records, joined by “and”; a condition that tells them apart may be missing. Identical values can stand only once. Inconclusive results and toxic doses are left out. Rule for the calls: active = survival T/C of 150% or more; inactive = T/C below 125% in these data.

System: BDF1 mice, B16 melanoma ip, median survival T/C
Experiment: NCI In Vivo Anticancer Drug Screen. Data for tumor model B16 Melanoma (intraperitoneal) in B6D2F1 (BDF1) mice
Details: endpoint: median survival time, higher = longer survival
Method in brief: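 The ratio T/C compares compound-treated mice with vehicle-treated controls, using survival or tumor size as the endpoint in a transplantable tumor model.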

[1] = dose: 1.5 mg/kg/injection, schedule: Q01DX009 (ip), vehicle: Klucel (hydroxypropylcellulose) (HPC)
[2] = dose: 1.56 mg/kg/injection, schedule: Q01DX009 (ip), vehicle: saline
[3] = dose: 3.12 mg/kg/injection, schedule: Q01DX009 (ip), vehicle: saline
[4] = dose: 6.25 mg/kg/injection, schedule: Q01DX009 (ip), vehicle: saline
[5] = dose: 12.5 mg/kg/injection, schedule: Q01DX009 (ip), vehicle: saline
[6] = dose: 25.0 mg/kg/injection, schedule: Q01DX009 (ip), vehicle: saline
[7] = dose: 50.0 mg/kg/injection, schedule: Q01DX009 (ip), vehicle: saline with Tween-80
[8] = dose: 100.0 mg/kg/injection, schedule: Q01DX009 (ip), vehicle: saline with Tween-80
[9] = dose: 200.0 mg/kg/injection, schedule: Q01DX009 (ip), vehicle: saline with Tween-80
[10] = dose: 6.25 mg/kg/injection, schedule: Q01DX009 (ip), vehicle: saline with Tween-80
[11] = dose: 12.5 mg/kg/injection, schedule: Q01DX009 (ip), vehicle: Klucel (hydroxypropylcellulose) (HPC)
[12] = dose: 12.5 mg/kg/injection, schedule: Q01DX009 (ip), vehicle: saline with Tween-80
[13] = dose: 25.0 mg/kg/injection, schedule: Q01DX009 (ip), vehicle: Klucel (hydroxypropylcellulose) (HPC)
[14] = dose: 25.0 mg/kg/injection, schedule: Q01DX009 (ip), vehicle: saline with Tween-80
[15] = dose: 100.0 mg/kg/injection, schedule: Q01DX009 (ip), vehicle: Klucel (hydroxypropylcellulose) (HPC)
[16] = dose: 400.0 mg/kg/injection, schedule: Q01DX009 (ip), vehicle: saline with Tween-80
[17] = dose: 100.0 mg/kg/injection, schedule: Q01DX009 (ip), vehicle: saline
[18] = dose: 200.0 mg/kg/injection, schedule: Q01DX009 (ip), vehicle: saline
[19] = dose: 50.0 mg/kg/injection, schedule: Q01DX009 (ip), vehicle: saline
[20] = dose: 4.0 mg/kg/injection, schedule: Q01DX009 (ip), vehicle: saline
[21] = dose: 8.0 mg/kg/injection, schedule: Q01DX009 (ip), vehicle: saline
[22] = dose: 400.0 mg/kg/injection, schedule: Q01DX009 (ip), vehicle: saline
[23] = dose: 50.0 mg/kg/injection, schedule: Q01DX009 (ip), vehicle: Klucel (hydroxypropylcellulose) (HPC)

Measured: T/C

ClCc1c2ccccc2c(CCl)c2ccccc12
inactive: dose: 0.75 mg/kg/injection, schedule: Q01DX009 (ip), vehicle: Klucel (hydroxypropylcellulose) (HPC) 114 % of control | [1] 119 % of control

CNCCCC1c2ccccc2C=Cc2ccccc21
inactive: [2] 106 % of control | [3] 118 % of control | [4] 103 % of control | [5] 112 % of control | [6] 109 % of control

CC(=O)/C=C(\C)OC1CCCCC1
inactive: [7] 113 % of control | [8] 104 % of control | [9] 92 % of control

CCO/C=C1\SC(=S)N(Cc2ccccc2)C1=O
inactive: dose: 3.12 mg/kg/injection, schedule: Q01DX009 (ip), vehicle: saline with Tween-80 111 % of control | [10] 123 % of control | [11] 92 % of control | [12] 123 % of control | [13] 102 % of control and 105 % of control | [14] 111 % of control

O=C(Nc1ccc(F)cc1)NC1CCCCC1
inactive: [15] 87 % of control | dose: 200.0 mg/kg/injection, schedule: Q01DX009 (ip), vehicle: Klucel (hydroxypropylcellulose) (HPC) 100 % of control

Cc1cccc(C)c1NC(=O)c1ccc(Cl)cc1Cl
inactive: [15] 92 % of control

Oc1ccc(Cl)c2cccnc12
inactive: dose: 12.5 mg/kg/injection, schedule: Q01DX009 (ip), vehicle: carboxymethylcellulose (CMC) 90 % of control | dose: 25.0 mg/kg/injection, schedule: Q01DX009 (ip), vehicle: carboxymethylcellulose (CMC) 96 % of control | dose: 50.0 mg/kg/injection, schedule: Q01DX009 (ip), vehicle: carboxymethylcellulose (CMC) 97 % of control

Nc1ccc(-c2c(N)ncc3ccccc23)cc1
inactive: [12] 101 % of control | [14] 104 % of control | [7] 103 % of control

Cn1nnnc1N/N=C/c1ccccc1
inactive: [8] 93 % of control | [9] 95 % of control | [16] 90 % of control

CCCC(Cc1ccccc1)N1CCCC1 (centres undefined)
inactive: [2] 105 % of control | [3] 100 % of control | [4] 92 % of control | [5] 115 % of control | [6] 102 % of control

CC(C)c1ccc(C(=O)CCCCl)cc1
inactive: [8] 93 % of control | [9] 86 % of control

CCOc1ccc(-c2nc3ccc(-c4nc5ccc(N6CCN(C)CC6)cc5[nH]4)cc3[nH]2)cc1
inactive: [3] 106 % of control | [4] 113 % of control | [5] 112 % of control

NC(=O)C(O)C(O)C(O)C(O)C(N)=O (centres undefined)
inactive: [17] 106 % of control | [18] 100 % of control

CC(=O)OC1C(CO)OC2C1Oc1nc(=N)c(F)cn12 (centres undefined)
inactive: dose: 3.13 mg/kg/injection, schedule: Q01DX009 (ip), vehicle: saline 88 % of control | [4] 93 % of control | [5] 90 % of control | [6] 86 % of control | [19] 91 % of control

O=C(O)CP(=O)(O)O
inactive: [20] 109 % of control | [21] 104 % of control | dose: 16.0 mg/kg/injection, schedule: Q01DX009 (ip), vehicle: saline 102 % of control | dose: 32.0 mg/kg/injection, schedule: Q01DX009 (ip), vehicle: saline 101 % of control | [19] 103 % of control | dose: 64.0 mg/kg/injection, schedule: Q01DX009 (ip), vehicle: saline 102 % of control | [17] 120 % of control
active: [18] 154 % of control | [22] 194 % of control | dose: 800.0 mg/kg/injection, schedule: Q01DX009 (ip), vehicle: saline 211 % of control

COC(=O)C(CCl)NC(C)=O (centres undefined)
inactive: [17] 102 % of control | [18] 102 % of control | [22] 117 % of control

CCCCCCCCC(=O)NCCCOC
inactive: dose: 100.0 mg/kg/injection, schedule: Q04DX003 (ip), vehicle: Klucel (hydroxypropylcellulose) (HPC) 107 % of control | dose: 200.0 mg/kg/injection, schedule: Q04DX003 (ip), vehicle: Klucel (hydroxypropylcellulose) (HPC) 101 % of control | dose: 400.0 mg/kg/injection, schedule: Q04DX003 (ip), vehicle: Klucel (hydroxypropylcellulose) (HPC) 93 % of control

N#CC(Nc1ccccc1)c1ccccc1 (centres undefined)
inactive: [23] 100 % of control | [15] 94 % of control

CCCCN(CCCC)CCCC#N
inactive: [18] 92 % of control

CC(C)OCc1c(N)nc(=S)[nH]c1C(=O)O
inactive: [6] 92 % of control | [19] 86 % of control

Cc1ccc(N=Nc2c(O)ccc3ccccc23)c(C)c1
inactive: [23] 92 % of control
active: dose: 400.0 mg/kg/injection, schedule: Q01DX009 (ip), vehicle: Klucel (hydroxypropylcellulose) (HPC) 150 % of control

CC(=O)O[C@H]1C(=O)O[C@@H]2C[C@H]3C(C)=CC(=O)[C@@H](O)[C@]3(C)[C@H]3[C@@]4(O)OC[C@]32[C@@H]1[C@@H](C)[C@H]4O
inactive: dose: 0.39 mg/kg/injection, schedule: Q01DX009 (ip), vehicle: saline with Tween-80 101 % of control | dose: 0.78 mg/kg/injection, schedule: Q01DX009 (ip), vehicle: saline with Tween-80 105 % of control | [1] 112 % of control | dose: 1.5 mg/kg/injection, schedule: Q01DX009 (ip), vehicle: saline 112 % of control | dose: 1.56 mg/kg/injection, schedule: Q01DX009 (ip), vehicle: saline with Tween-80 96 % of control | dose: 3.13 mg/kg/injection, schedule: Q01DX009 (ip), vehicle: saline with Tween-80 107 % of control | [10] 107 % of control | [12] 118 % of control
active: dose: 12.0 mg/kg/injection, schedule: Q01DX009 (ip), vehicle: saline 164 % of control

CC(=O)C1=C(O)C2C3c4c[nH]c5cccc(c45)CC3C(C)(C)N2C1=O (centres undefined)
inactive: dose: 0.13 mg/kg/injection, schedule: Q01DX009 (ip), vehicle: saline 102 % of control | dose: 0.25 mg/kg/injection, schedule: Q01DX009 (ip), vehicle: saline 106 % of control | dose: 0.5 mg/kg/injection, schedule: Q01DX009 (ip), vehicle: saline 106 % of control | dose: 1.0 mg/kg/injection, schedule: Q01DX009 (ip), vehicle: saline 106 % of control | dose: 2.0 mg/kg/injection, schedule: Q01DX009 (ip), vehicle: saline 102 % of control | [20] 107 % of control | [21] 111 % of control

CC(=O)Oc1c(Br)cc(Br)cc1-c1ccccc1
inactive: [7] 98 % of control | [8] 94 % of control | [9] 98 % of control | [16] 91 % of control

O=C1CCNC(=O)N1OS(=O)(=O)c1ccccc1
inactive: dose: 6.25 mg/kg/injection, schedule: Q01DX009 (ip), vehicle: Klucel (hydroxypropylcellulose) (HPC) 106 % of control | [11] 100 % of control | [13] 98 % of control

OC1CCC(O)C1(Cl)Cl (centres undefined)
inactive: [6] 98 % of control | [19] 109 % of control | [17] 91 % of control
